# Data taken from patent US9365588B2, “Benzoxazines as modulators of ion channels” (Vertex Pharmaceuticals Incorporated, priority 2011, dated 2016).
# Molecular target: human NaV 1.7 (Homo sapiens, UniProt Q15858)
# Assay: E-VIPR optical membrane potential assay with electrical stimulation
# Type: cell-based
# Settings: sodium channel inhibition; read-out: Binned Activity Data (IC50)
# Procedure, shortened: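 Membrane-potential read-out: background-subtracted 460 nm/580 nm ratio during a 9 s current-controlled stimulus, 400 Hz scan. Before stimulation, NaV1.7-HEK cells carried coumarin/oxonol dye and compound (final DMSO 0.625%) for 20–35 min at room temperature; tetracaine 125 μM served as positive control.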
# human NaV 1.7, sequence (Q15858 whole entry): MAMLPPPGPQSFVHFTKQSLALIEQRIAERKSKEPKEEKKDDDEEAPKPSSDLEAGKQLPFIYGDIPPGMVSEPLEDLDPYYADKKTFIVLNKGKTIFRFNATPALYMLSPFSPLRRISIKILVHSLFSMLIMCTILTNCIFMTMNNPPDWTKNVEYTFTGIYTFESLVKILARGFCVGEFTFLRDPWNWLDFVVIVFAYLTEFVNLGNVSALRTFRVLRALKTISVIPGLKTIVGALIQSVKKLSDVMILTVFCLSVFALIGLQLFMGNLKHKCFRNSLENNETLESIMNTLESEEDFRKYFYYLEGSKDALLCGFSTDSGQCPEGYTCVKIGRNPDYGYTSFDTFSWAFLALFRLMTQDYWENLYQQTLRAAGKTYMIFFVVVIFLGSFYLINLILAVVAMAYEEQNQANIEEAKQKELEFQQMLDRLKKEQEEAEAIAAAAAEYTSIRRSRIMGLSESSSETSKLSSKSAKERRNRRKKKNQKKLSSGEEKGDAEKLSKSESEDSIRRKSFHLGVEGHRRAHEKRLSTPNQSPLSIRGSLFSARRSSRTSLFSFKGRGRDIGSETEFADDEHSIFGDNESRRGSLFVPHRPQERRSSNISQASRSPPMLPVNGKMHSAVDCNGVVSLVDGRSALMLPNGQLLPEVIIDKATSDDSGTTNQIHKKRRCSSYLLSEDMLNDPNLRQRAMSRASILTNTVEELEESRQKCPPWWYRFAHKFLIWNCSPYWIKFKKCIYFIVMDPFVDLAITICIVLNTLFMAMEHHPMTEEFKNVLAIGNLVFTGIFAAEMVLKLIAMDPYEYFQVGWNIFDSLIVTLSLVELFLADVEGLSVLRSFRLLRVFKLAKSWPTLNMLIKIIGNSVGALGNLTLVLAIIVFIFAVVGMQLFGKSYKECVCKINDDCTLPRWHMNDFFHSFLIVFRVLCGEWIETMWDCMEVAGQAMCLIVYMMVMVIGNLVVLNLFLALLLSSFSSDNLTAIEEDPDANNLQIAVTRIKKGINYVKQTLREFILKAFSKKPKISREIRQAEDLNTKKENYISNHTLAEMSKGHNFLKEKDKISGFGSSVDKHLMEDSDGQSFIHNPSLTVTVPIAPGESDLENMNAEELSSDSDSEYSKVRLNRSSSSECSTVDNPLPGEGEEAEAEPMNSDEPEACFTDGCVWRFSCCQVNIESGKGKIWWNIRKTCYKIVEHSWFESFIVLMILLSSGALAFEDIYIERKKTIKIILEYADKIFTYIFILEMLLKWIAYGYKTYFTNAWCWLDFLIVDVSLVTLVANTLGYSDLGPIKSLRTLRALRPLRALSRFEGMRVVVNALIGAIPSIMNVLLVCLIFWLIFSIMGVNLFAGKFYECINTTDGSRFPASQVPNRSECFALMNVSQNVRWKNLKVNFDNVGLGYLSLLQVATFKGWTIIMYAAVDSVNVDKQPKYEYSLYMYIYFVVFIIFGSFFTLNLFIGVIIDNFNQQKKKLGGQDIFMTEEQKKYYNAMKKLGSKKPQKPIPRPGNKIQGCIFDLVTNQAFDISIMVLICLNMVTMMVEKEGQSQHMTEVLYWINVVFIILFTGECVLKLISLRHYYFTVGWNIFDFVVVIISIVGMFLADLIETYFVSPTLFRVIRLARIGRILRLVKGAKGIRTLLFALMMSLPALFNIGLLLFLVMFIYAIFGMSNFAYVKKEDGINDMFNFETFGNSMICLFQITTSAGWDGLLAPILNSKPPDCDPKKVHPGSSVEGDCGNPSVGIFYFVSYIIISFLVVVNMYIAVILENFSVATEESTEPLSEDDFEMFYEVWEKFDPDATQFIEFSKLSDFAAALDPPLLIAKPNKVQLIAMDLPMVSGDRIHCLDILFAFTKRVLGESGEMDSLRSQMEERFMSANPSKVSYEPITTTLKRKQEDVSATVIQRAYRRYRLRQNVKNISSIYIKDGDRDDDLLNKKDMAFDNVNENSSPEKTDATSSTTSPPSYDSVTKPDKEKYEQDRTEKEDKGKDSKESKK
row,SMILES,IC50 [µM]
1,COc1cc(C(=O)N2CCC3(CC2)Oc2ccccc2-n2cccc23)ccc1O[C@@H]1CCC[C@H]1O [Compound 437],≤ 2
2,COc1ccc(C(=O)N2CCC3(CC2)Oc2ccccc2-n2c(C(F)(F)F)ccc23)nc1 [Compound 438],≤ 2
3,Cc1ccc2c(c1)OC1(CCN(C(=O)c3ccc(S(=O)(=O)C(C)C)cc3)CC1)c1ccc(C#N)n1-2 [Compound 440],≤ 2
4,Cc1cc(C(=O)N2CCC3(CC2)Oc2ccccc2-n2cccc23)ccc1C(C)(C)O [Compound 443],≤ 2
5,CCOc1cccc(C(=O)N2CCC3(CC2)Oc2ccccc2-n2c3ccc2S(C)(=O)=O)c1F [Compound 445],2 to 5
6,CCn1ncc2c1-c1cc(F)ccc1OC21CCN(C(=O)c2ccccc2OC(F)F)CC1 [Compound 446],≤ 2
7,COC[C@@H](C)Oc1ccc(C(=O)N2CCC3(CC2)Oc2ccccc2-n2cccc23)cc1OC [Compound 449],≤ 2
8,Cc1cc(C(=O)N2CCC3(CC2)Oc2cc(Cl)ccc2-n2cccc23)ccc1C#N [Compound 453],≤ 2
9,CCc1ccc(C(=O)N2CCC3(CC2)Oc2cc(CN(C)C)ccc2-n2cccc23)cc1OC [Compound 454],2 to 5
10,CC(C)(O)c1ccc(C(=O)N2CCC3(CC2)Oc2ccccc2-n2c(C(F)(F)F)ccc23)cn1 [Compound 455],> 5
11,CCS(=O)(=O)c1ccc(C(=O)N2CCC3(CC2)Oc2ccccc2-n2c(C(F)(F)F)ccc23)cc1 [Compound 456],≤ 2
12,Cc1cc(C(=O)N2CCC3(CC2)Oc2ccccc2-n2c(C#N)ccc23)ccc1OCC(=O)O [Compound 462],2 to 5
13,COc1cc(C(=O)N2CCC3(CC2)Oc2ccccc2-n2cccc23)ccc1OCCCO [Compound 466],≤ 2
14,O=C(c1cccnc1Oc1ccc(F)cc1)N1CCC2(CC1)Oc1ccccc1-n1c(C(F)(F)F)ccc12 [Compound 472],≤ 2
15,COc1cc(OC)c(C(=O)N2CCC3(CC2)Oc2ccccc2-n2cccc23)cc1CO [Compound 474],2 to 5
16,COc1ccc(F)c(C(=O)N2CCC3(CC2)Oc2cc(Cl)ccc2-n2cccc23)c1 [Compound 475],≤ 2
17,COc1ccc(C(=O)N2CCC3(CC2)Oc2ccccc2-n2cccc23)cc1C(F)(F)F [Compound 477],≤ 2

row,SMILES,IC50 [µM]
1,CCOc1cccc(C(=O)N2CCC3(CC2)Oc2cc(Cl)ccc2-n2cccc23)c1 [Compound 478],≤ 2
2,COc1ccc(C(=O)N2CCC3(CC2)Oc2cc(F)ccc2-n2c(C#N)ccc23)cc1C(F)(F)F [Compound 479],> 5
3,CC(C)(C)S(=O)(=O)c1ccc(C(=O)N2CCC3(CC2)Oc2ccccc2-n2c(C(F)(F)F)ccc23)cc1 [Compound 483],≤ 2
4,COc1cc(C(F)(F)F)ccc1C(=O)N1CCC2(CC1)Oc1cc(Cl)ccc1-n1cccc12 [Compound 484],≤ 2
5,CCOc1cccc(C(=O)N2CCC3(CC2)Oc2ccccc2-n2c(C#N)ccc23)c1F [Compound 485],≤ 2
6,Cn1cc2c(n1)-c1cc(F)ccc1OC21CCN(C(=O)c2ccc(C(C)(C)O)cc2)CC1 [Compound 486],≤ 2
7,CCc1ccc(C(=O)N2CCC3(CC2)Oc2cc(Cl)ccc2-n2cccc23)cc1O [Compound 489],2 to 5
8,Cc1cc(C(=O)N2CCC3(CC2)Oc2cccc(C)c2-n2c(C#N)ccc23)ccc1OC(C)C [Compound 490],≤ 2
9,COc1cc(C(=O)N2CCC3(CC2)Oc2cc(Cl)ccc2-n2cccc23)ccc1C(C)(C)OC [Compound 497],≤ 2
10,Cc1cc(C(=O)N2CCC3(CC2)Oc2ccccc2-c2[nH]ncc23)ccc1OC(C)C [Compound 500],≤ 2
11,CC(C)NS(=O)(=O)c1ccc(C(=O)N2CCC3(CC2)Oc2ccccc2-c2nn(C)cc23)cc1 [Compound 501],≤ 2
12,Cc1ccc(C(=O)N2CCC3(CC2)Oc2cc(Cl)ccc2-n2cccc23)c(=O)n1C [Compound 502],≤ 2
13,Cc1nc2ccc(C(=O)N3CCC4(CC3)Oc3ccccc3-n3c(C(F)(F)F)ccc34)cc2s1 [Compound 503],≤ 2
14,CS(=O)(=O)c1ccc(C(=O)N2CCC3(CC2)Oc2ccccc2-n2c(C#N)ccc23)cc1C(F)(F)F [Compound 504],≤ 2
15,O=C(c1ccc2nc(Cl)sc2c1)N1CCC2(CC1)Oc1ccccc1-n1c(C(F)(F)F)ccc12 [Compound 505],2 to 5
16,CC(C)S(=O)(=O)c1ccc(C(=O)N2CCC3(CC2)Oc2ccccc2-n2c(F)ccc23)cc1 [Compound 508],≤ 2

# Next, values leading:
row,IC50 [µM],SMILES
1,≤ 2,Cn1ncc2c1-c1ccccc1OC21CCN(C(=O)c2cccc3nccnc23)CC1 [Compound 439]
2,≤ 2,COc1cc(C(=O)N2CCC3(CC2)Oc2ccccc2-c2c3cnn2C)ccc1C1CC1 [Compound 442]
3,> 5,Cn1ncc2c1-c1ccccc1OC21CCN(C(=O)c2ccc3[nH]ncc3c2)CC1 [Compound 444]
4,≤ 2,Cc1cc(C(C)(C)O)ccc1C(=O)N1CCC2(CC1)Oc1ccccc1-c1c2cnn1C [Compound 447]
5,2 to 5,CN(C)C(=O)c1ccccc1C(=O)N1CCC2(CC1)Oc1ccccc1-c1c2cnn1C [Compound 448]
6,≤ 2,Cn1ncc2c1-c1ccccc1OC21CCN(C(=O)c2ccccc2OC(F)(F)F)CC1 [Compound 452]
7,≤ 2,COc1cccc2c(C(=O)N3CCC4(CC3)Oc3ccccc3-c3c4cnn3C)c[nH]c12 [Compound 460]
8,≤ 2,COc1cccc2[nH]cc(C(=O)N3CCC4(CC3)Oc3ccccc3-c3c4cnn3C)c12 [Compound 463]
9,≤ 2,CC(C)Oc1ccc(C(=O)N2CCC3(CC2)Oc2ccccc2-c2c3cnn2C)cc1 [Compound 464]
10,≤ 2,COc1cc(C)ccc1C(=O)N1CCC2(CC1)Oc1ccccc1-c1c2cnn1C [Compound 465]
11,≤ 2,Cn1ncc2c1-c1ccc(F)cc1OC21CCN(C(=O)c2ccccc2OC(F)(F)F)CC1 [Compound 468]
12,2 to 5,COCCOc1ccc(C(=O)N2CCC3(CC2)Oc2ccccc2-c2c3cnn2CCOC)cc1OC [Compound 469]
13,2 to 5,COc1ccc(C(=O)N2CCC3(CC2)Oc2ccccc2-c2c3cnn2C)c(O)c1 [Compound 470]
14,≤ 2,Cn1ncc2c1-c1ccccc1OC21CCN(C(=O)c2ccc(CC(C)(C)O)cc2)CC1 [Compound 473]
15,≤ 2,COc1ccc(F)cc1C(=O)N1CCC2(CC1)Oc1ccccc1-c1c2cnn1C [Compound 476]
16,≤ 2,COc1ccc2c(c1)-c1c(cnn1C)C1(CCN(C(=O)c3ccccc3OC(F)F)CC1)O2 [Compound 480]
17,≤ 2,COc1cccc2c1c(C(=O)N1CCC3(CC1)Oc1ccccc1-c1c3cnn1C)cn2C [Compound 487]
18,> 5,Cc1cccc(C(=O)N2CCC3(CC2)Oc2ccccc2-c2c3cnn2C)c1 [Compound 491]
19,≤ 2,CNS(=O)(=O)c1ccc(C(=O)N2CCC3(CC2)Oc2ccccc2-c2c3cnn2C)cc1 [Compound 494]
20,> 5,Cn1ncc2c1-c1ccccc1OC21CCN(C(=O)c2ccc(OCCO)cc2)CC1 [Compound 496]
21,2 to 5,CN(C)c1cc(C(=O)N2CCC3(CC2)Oc2ccccc2-c2c3cnn2C)ccn1 [Compound 499]
22,≤ 2,Cn1ncc2c1-c1ccccc1OC21CCN(C(=O)c2ccc(C(C)(C)O)cc2)CC1 [Compound 506]
23,> 5,COc1cc(C(=O)N2CCC3(CC2)Oc2ccccc2-c2c3cnn2C)ccc1OCC(N)=O [Compound 507]
